Experimental data published in ChEMBL document CHEMBL3228042, “Stereochemical aspects of the metabolism of 5-(4'-fluorophenyl)-5-phenylhydantoin in the rat” (J Med Chem, 1979).

Tests used:
Assay type in all cases: ADME, organism-based
Conditions in all cases: in vivo
[1] = Drug metabolism in ip dosed Wistar rat assessed as 3'-O-methyl derivative level in urine up to 96 hrs by GC-MS analysis
[2] = Drug metabolism in ip dosed Wistar rat assessed as 5-(3',4'-dihydroxyphenyl)-5-(4'-fluorophenyl)hydantoin level in urine up to 96 hrs by GC-MS analysis
[3] = Drug metabolism in ip dosed Wistar rat assessed as (R,S)-5-(3',4'-dimethoxyphenyl)-5-(4'-fluorophenyl)hydantoin level in urine up to 96 hrs by GC-MS analysis
[4] = Drug metabolism in ip dosed Wistar rat assessed as […] level in urine up to 96 hrs by GC-MS analysis
[5] = Drug metabolism in ip dosed Wistar rat assessed as 5-(4'-fluorophenyl)-5-(4'-hydroxyphenyl)hydantoin level in urine up to 96 hrs by GC-MS analysis
[6] = Drug metabolism in ip dosed Wistar rat assessed as (R)-(-)-5-(4'-fluorphenyl)-5-(4'-hydroxyphenyl)hydantoin level in urine up to 96 hrs by TLC analysis

| Drug metabolism [1] | Drug metabolism [2] | Drug metabolism [3] | Drug metabolism [4] | Drug metabolism [5] | Drug metabolism [6] | SMILES |
| --- | --- | --- | --- | --- | --- | --- |
| metabolite_detected | metabolite_detected | metabolite_detected | metabolite_detected | metabolite_detected | – | O=C1NC(=O)C(c2ccccc2)(c2ccc(F)cc2)N1 (stereo unspecified) |
| metabolite_detected | metabolite_detected | metabolite_detected | metabolite_detected | metabolite_detected | – | O=C1[N-]C(=O)C(c2ccccc2)(c2ccc(F)cc2)N1.[Na+] (racemic) |
| – | – | – | – | – | metabolite_detected | O=C1NC(=O)C(c2ccc(O)cc2)(c2ccc(F)cc2)N1 (racemic) |
